# Results: patent US20190307771A1, “METHODS AND COMPOSITIONS FOR THE TREATMENT OF CANCER AND METABOLIC DISEASES” (THE REGENTS OF THE UNIVERSITY OF CALIFORNIA, priority 2016, published 2019)
# Entries after “also recorded” stand apart in the source; their conditions may differ.
# Columns and labels:
# miR-22 [1] = experiment: miR-22 expression in HCT116 cells (qRT-PCR); assay type: cell-based; conditions: 24 hours, RA 10 μM, butyrate 5 mM, propionate 10 mM, valerate 10 mM, SAHA 5 μM
# Description: To study the effect of RA and HDAC inhibitors on miR-22 expression, HCT116 cells were treated with RA, butyrate, propionate, valerate, and SAHA. The SCFA concentrations used were within physiologic ranges^35.
# (§1) Total RNA was extracted with TRIzol Reagent (Invitrogen, Carlsbad, Calif.), and cDNA was generated using High Capacity RNA-to-cDNA Kit (Applied Biosystems, Carlsbad, Calif.). qRT-PCR was performed on ABI 7900HT Fast Real time PCR system using Power SYBR® Green PCR Master Mix (Applied Biosystems, Carlsbad, Calif.).
# [2] = tested on: retinoic acid receptor beta (RARβ); experiment: RARB expression in HCT116 cells (qRT-PCR); assay type: cell-based; conditions: 24 hours, RA 10 μM, butyrate 5 mM, SAHA 5 μM
# Description: as §1
# RARB and NUR77 genes = experiment: ChIP-qPCR: HDAC recruitment and H3K9 acetylation at RARB and NUR77 genes in HCT116 cells; assay type: cell-based; conditions: RA 10 μM, butyrate 5 mM, SAHA 5 μM
# Description: Cell lysates were used for ChIP with antibodies specific for HDAC1, HDAC4, SIRT1, or acetylated H3K9, followed by qPCR using primers specific for the RARB and NUR77 genes. DMSO treated cells and IP using IgG were included as negative controls. […]inding was expressed relative to the IgG negative controls.
# (§2) Chromatin immunoprecipitation (ChIP)-qPCR ChIP-qPCR was performed as described previously^21. Briefly, chromatin lysate was precleared before incubation with an anti-H3K9AC antibody (Millipore. Billerica, Mass.), anti-HDAC1 and anti-HDAC4 (Cell signaling technology, Beverly, Mass.) or anti-SIRT1 antibody (Santa Cruz Biotechnology, Santa Cruz, Calif.). IgG (Santa Cruz Biotechnology, Santa Cruz, Calif.) and RNA Polymerase II antibody (Millipore, Billerica, Mass.) were used as negative and positive controls, respectively. Samples were incubated with Dynase beads at 4° C. overnight followed by de-crosslinking and purification. DNA fragments generated served as templates for qPCR using Power SYBR1 Green PCR Master Mix.
# NUR77 and RARβ = experiment: Induction and localization of NUR77 and RARβ in HCT116 cells; assay type: cell-based; conditions: 48 hours, RA 10 μM, butyrate 5 mM, SAHA 5 μM, EGF 32 nM
# Description: Proteins were immunoprecipitated by anti-NUR77 or anti-RARβ antibodies, or IgG, followed by Western blot using anti-RARβ or anti-NUR77 antibodies.
# To study the effect of miR-22 in induction of cytosolic NUR77 by RA/butyrate, adenoviral-delivery of miR-22 inhibitors tagged with green fluorescence (adeno-miR-22 inhibitor-GFP, Applied Biological Materials Inc, Richond, BC) were used to infect HCT116 cells. At 48 hours post adenoviral infection, cells were treated with RA (10 μM) plus butyrate (5 mM) or DMSO for 24 hours. […] Cells were mounted in ProLong® Gold Antifade Reagent with DAPI (4′,6-diamidino-2-phenylindole, Life Technologies, Carlsbad, Calif.) and imaged under Keyence BZ-9000 microscope.
# NUR77 = experiment: ChIP-qPCR and RT-PCR: NUR77 binding to BRE and CCND2 and their mRNA; assay type: cell-based; conditions: HCT116 cells
# Description: NUR77 and RARβ acetylation status was also studied because protein acetylation alters nuclear receptor activity^37. […] To study the effect of RA/butyrate in modulating NUR77 and RARβ transcriptional activity, ChIP-qPCR and RT-PCR were performed to determine receptor binding to transcriptional regulatory regions and mRNA levels of downstream targets, respectively.
# as §2
# [3] = tested on: Gpr41, Gpr43, Gpr109a, Pgc1α, Pepck, Fas; experiment: Ileal and hepatic mRNA levels in mice after oral gavage; assay type: in vivo, C57BL/6 mice; conditions: RA 15 mg/kg and/or butyrate 500 mg/kg, oral gavage every other day for one week
# [4] = tested on: HDAC1, HDAC4, SIRT1, cyclin A2 (CCNA2); experiment: Western blot of protein deacetylases and cyclin A2 in HCT116 cells; assay type: cell-based; conditions: 24 hours, RA 10 μM, butyrate 5 mM, SAHA 5 μM
# [5] = tested on: liver cancer cells (Huh7, Hep3B, HepG2); conditions: cited from earlier work; for Apoptosis of liver cancer cells: published studies
# [6] = cited from earlier work
# DLD-1 colon cancer cells = experiment: Cell viability of DLD-1 cells; conditions: 48 hours, RA 10 μM, butyrate 5 mM, propionate 10 mM, valerate 10 mM, SAHA 5 μM, vs. DMSO
# Description: HCT116 and DLD-1 colon cancer cells were treated with dimethyl sulfoxide (DMSO) only (as a negative control), RA (10 μM), Fenretinide (10 μM), or an HDAC inhibitor. […] SCFAs were selected from butyrate (5 mM), propionate (10 mM), and valerate (10 mM). Some HCT116 and DLD-1 cells were treated separately with a combination of RA and one of the SCFAs. Cells were treated for 48 hours before viability was assessed.
# [7] = tested on: liver cancer cells (Huh7, Hep3B, HepG2); experiment: Apoptosis of liver cancer cells; conditions: prevented by NUR77 siRNA
# [8] = cited from earlier work; remark: listed apart in the source
# [9] = T2DM and NAFLD patients; cited from earlier work
# miR-22 [10] = experiment: miR-22 induction by bile acids, FXR agonist and vitamin D3; conditions: unpublished data
# primary liver cancer = conditions: cited from earlier work
# [11] = FXR KO mice, depletion of BAs; cited from earlier work
# [12] = FXR KO mice: steatohepatitis and liver cancer; assay type: in vivo; conditions: 10 months old Western diet-fed FXR KO mice; 100 mg/liter in drinking water for three months
# Source text: The treatment was started when mice were seven months old. Mice were sacrificed when they were ten months old. n>4.
# FXR KO mice have increased insulin resistance accompanied by elevated BAs with increased DCA and develop liver cancer when they are about 15 months old (FIG. 24). […] In addition, FXR KO mice also had reduced Erysipelotrichaceae and Coriobacteriaceae, which have many beneficial health effects (FIG. 25A). Consistently, FXR KO mice had reduced bcoA, which generates butyrate, and increased baiJ and dsrA that generate DCA and hydrogen sulfide, respectively (FIG. 25B). Moreover, 10 months old Western diet-fed FXR KO mice developed severe steatohepatitis with massive hepatic lymphocyte infiltration, which could be eliminated by polymyxin B. This exciting finding clearly indicated the role of Gram-negative bacteria in contributing to hepatic inflammation (FIG. 26). […] Because it takes about 10-15 months for FXR KO mice to develop liver cancer, we will introduce Met/β-catenin plasmids by using sleep beauty transposon system into FXR KO mice via hydrodynamic tail vein injection to induce liver cancer. In wild type mice, these plasmids, which have been provided by Dr. Xin Chen at UCSF, can induce liver cancer within a month post-injection. In the presence of dysbiosis and dysregulated BAs, liver cancer formation is expected to be facilitated and may occur even earlier. […]
compound,measurement,setting,value
"CC1=C(/C=C/C(C)=C/C=C/C(C)=C/C(=O)O)C(C)(C)CCC1 [RA, all-trans retinoic acid]",miR-22 expression level,miR-22 [1],upregulated; also recorded: induced miR-22 expression; also recorded: could induce miR-22; also recorded: increased miR-22 level
same,RARB (RARβ) expression / transcription,[2],upregulated
same,Recruitment of HDAC4 and SIRT1 to the RARB gene (ChIP-qPCR),RARB and NUR77 genes,not
same,Induction and localization of NUR77 and RARβ (immunostaining),NUR77 and RARβ,modestly induced both receptors in the nucleus
same,NUR77 binding to BRE and CCND2 promoter regions and their mRNA levels (NUR77 transcriptional activity),NUR77,not RA alone
same,Expression of Gpr41 and Gpr43,[3],could induce the expression
same,"Protein levels of HDAC1, HDAC4, SIRT1, and cyclin A2 (CCNA2)",[4],"reduced HDAC1, HDAC4, SIRT1, and CCNA2 protein levels"
same,Apoptosis of liver cancer cells,[5],not as effective as fenretinide in inducing apoptosis
same,"Microbiota phenotype, metabolism and liver regeneration",[6]; RA prior to liver resection,"lean microbiota phenotype, improved metabolism as well as accelerated liver regeneration"
same,Ratio of Firmicutes to Bacteroidetes,[6]; one day after liver resection,reduced ratio of Firmicutes to Bacteroidetes
same,Cell viability,DLD-1 colon cancer cells,reduced cell viability
O=C(CCCCCN1C(=O)c2cccc3cccc(c23)C1=O)NO [Scriptaid],Apoptosis of Huh7 cells,[7],induced apoptosis of Huh7 cells
"CC1=C(/C=C/C(C)=C/C=C/C(C)=C/C(=O)Nc2ccc(O)cc2)C(C)(C)CCC1 [fenretinide, N-(4-hydroxyphenyl) retinamide]",Apoptotic effect in HepG2,[5]; HepG2 vs. Huh7 and Hep3B,resistant to the apoptotic effect
same,Apoptosis of liver cancer cells,[5],effectively induces apoptosis of liver cancer cells; also recorded: much better apoptosis inducer than RA
same,Tumor response,"[8]; NCI case report, advanced cutaneous T-cell lymphoma patient",tumor response
same,Stabilization of the disease,"[8]; Phase II, small cell lung cancer",24 % of the patients
same,Tolerability,"[8]; breast cancer chemoprevention study (3000 patients, 5 year), Phase II small cell lung cancer",well tolerated in humans; also recorded: well tolerated in patients with small cell lung cancer
same,Apoptosis of Huh7 cells,[7],induced apoptosis of Huh7 cells
CC[C@H]1[C@@H](O)[C@@H]2[C@H](CC[C@]3(C)[C@@H]([C@H](C)CCC(=O)O)CC[C@@H]23)[C@@]2(C)CC[C@@H](O)C[C@@H]12 [obetacholic acid],"Insulin sensitivity, liver inflammation and fibrosis",[9],improves insulin sensitivity and reduces liver inflammation as well as fibrosis
same,miR-22 induction,miR-22 [10],effective in inducing miR-22
CNC(=O)c1cc(Oc2ccc(NC(=O)Nc3ccc(Cl)c(C(F)(F)F)c3)cc2)ccn1 [sorafenib],Increase of survival,primary liver cancer,6 months
cholestyramine,Liver cancer formation,[11],prevented liver cancer formation
polymyxin B,Severe steatohepatitis with massive hepatic lymphocyte infiltration,[12],eliminated
